In US20150174194A1, “METHODS FOR TREATING LIVER TRANSPLANT RECIPIENTS” (AbbVie Inc., priority 2013, published 2015):

How the values were obtained:
[1] = Immunosuppressant blood concentrations in liver transplant recipients co-dosed with 3D; format: in vivo, human
Procedure: Patients (n=34) on stable TAC or CSA therapy, at least 12 months post-LT, fibrosis stage <F2, received 3D +RBV for 24 weeks. When co-dosed with 3D, it was recommended that the prestudy total CSA daily dose be reduced to one-fifth and given QD. For TAC, a dose of 0.5 mg/7 days or 0.2 mg/3 days was recommended. Subsequent dose and dosing frequency modifications in TAC were made based on the individual TAC levels. Observed CSA trough concentrations (Ctrough) were summarized for CSA recipients (n=5) while TAC data (n=29) were interrogated further to profile on-study TAC Ctroughs. A nonlinear mixed effects model was used to characterize TAC concentration-time profiles using NONMEM software. A one compartment pharmacokinetic (PK) model with first order oral absorption and between subject variability on apparent clearance was used to describe the TAC data. The model estimated TAC PK parameters were used to predict TAC concentration-time profiles in order to evaluate TAC dosing strategies when co-dosed with 3D.

[2] = human, in vivo
From the text: The Example summarizes the management of concentrations of the immunosuppressants, tacrolimus (TAC) and cyclosporine (CSA) during the treatment.

[3] = co-dosed with 3D, TAC dose 0.2-1 mg, CSA dose 25-75 mg, liver transplant recipients

C=CC[C@@H]1/C=C(\C)C[C@H](C)C[C@H](OC)[C@H]2O[C@@](O)(C(=O)C(=O)N3CCCC[C@H]3C(=O)O[C@H](/C(C)=C/[C@@H]3CC[C@@H](O)[C@H](OC)C3)[C@H](C)[C@@H](O)CC1=O)[C@H](C)C[C@@H]2OC [TAC, tacrolimus]
Concentrations with recommended dose modifications ([1]; LT recipients with GT1 HCV infection receiving 3D): within the therapeutic range | Blood concentration, interquartile range (IQR) [1, 3]: 3.3 to 6.6 ng/mL | Blood concentration, median [1, 3]: 4.6 ng/mL | Increase in concentration 24 hours after co-dosing with 3D [2]: 17 fold
